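Results reflect a 48-hour exposure of cells in 96-well plates to compound at five concentrations. GI50 = concentration required for 50% inhibition of growth. At the TGI there is no net growth.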
What was measured:
Experiment in all cases: inhibition of tumour cell growth, NCI panel, 48 h
786-0 renal = test system: 786-0 renal
A498 renal = test system: A498 renal
A549 NSCLC = test system: A549 NSCLC
ACHN renal = test system: ACHN renal
BT-549 breast = test system: BT-549 breast
CAKI-1 renal = test system: CAKI-1 renal
CCRF-CEM leukemia = test system: CCRF-CEM leukemia
COLO 205 colon = test system: COLO 205 colon
DU-145 prostate = test system: DU-145 prostate
EKVX NSCLC = test system: EKVX NSCLC
HCC-2998 colon = test system: HCC-2998 colon
HCT-116 colon = test system: HCT-116 colon
HCT-15 colon = test system: HCT-15 colon
HL-60(TB) leukemia = test system: HL-60(TB) leukemia
HOP-62 NSCLC = test system: HOP-62 NSCLC
HOP-92 NSCLC = test system: HOP-92 NSCLC
HS 578T breast = test system: HS 578T breast
HT29 colon = test system: HT29 colon
IGROV1 ovarian = test system: IGROV1 ovarian
K-562 leukemia = test system: K-562 leukemia
KM12 colon = test system: KM12 colon
LOX IMVI melanoma = test system: LOX IMVI melanoma
M14 melanoma = test system: M14 melanoma
MALME-3M melanoma = test system: MALME-3M melanoma
MCF7 breast = test system: MCF7 breast
MDA-MB-231 breast = test system: MDA-MB-231 breast
MDA-MB-435 = test system: MDA-MB-435
MDA-MB-468 breast = test system: MDA-MB-468 breast
MOLT-4 leukemia = test system: MOLT-4 leukemia
NCI-H226 lung = test system: NCI-H226 lung
NCI-H23 lung = test system: NCI-H23 lung
NCI-H460 lung = test system: NCI-H460 lung
NCI-H522 lung = test system: NCI-H522 lung
OVCAR-3 ovarian = test system: OVCAR-3 ovarian
OVCAR-4 ovarian = test system: OVCAR-4 ovarian
OVCAR-5 ovarian = test system: OVCAR-5 ovarian
OVCAR-8 ovarian = test system: OVCAR-8 ovarian
PC-3 prostate = test system: PC-3 prostate
RPMI-8226 leukemia = test system: RPMI-8226 leukemia
RXF 393 renal = test system: RXF 393 renal
SF-268 CNS = test system: SF-268 CNS
SF-295 CNS = test system: SF-295 CNS
SF-539 CNS = test system: SF-539 CNS
SK-MEL-2 melanoma = test system: SK-MEL-2 melanoma
SK-MEL-28 melanoma = test system: SK-MEL-28 melanoma
SK-MEL-5 melanoma = test system: SK-MEL-5 melanoma
SK-OV-3 ovarian = test system: SK-OV-3 ovarian
SN12C renal = test system: SN12C renal
SNB-19 CNS = test system: SNB-19 CNS
SR leukemia = test system: SR leukemia
SW-620 colon = test system: SW-620 colon
T-47D breast = test system: T-47D breast
TK-10 renal = test system: TK-10 renal
U251 CNS = test system: U251 CNS
UACC-257 melanoma = test system: UACC-257 melanoma
UACC-62 melanoma = test system: UACC-62 melanoma
UO-31 renal = test system: UO-31 renal

C=CC(=O)N1CCN(c2ccc3nc4c(nc3c2C(F)(F)F)C(=O)c2ncccc2C4=O)CC1
GI50 (786-0 renal): 9.96 µM | TGI (786-0 renal): 66.6 µM | GI50 (A498 renal): 15.6 µM | TGI (A498 renal): 29.8 µM | GI50 (A549 NSCLC): 3.05 µM | TGI (A549 NSCLC): 14.7 µM | GI50 (ACHN renal): 6.41 µM | TGI (ACHN renal): 20.5 µM | GI50 (BT-549 breast): 7.17 µM | TGI (BT-549 breast): 20.3 µM | GI50 (CAKI-1 renal): 9.74 µM | TGI (CAKI-1 renal): 38 µM | GI50 (CCRF-CEM leukemia): 2.99 µM | TGI (CCRF-CEM leukemia): > 98 µM | GI50 (COLO 205 colon): 2.42 µM | TGI (COLO 205 colon): 7.83 µM | GI50 (DU-145 prostate): 6.16 µM | TGI (DU-145 prostate): 20 µM | GI50 (EKVX NSCLC): 8.45 µM | TGI (EKVX NSCLC): 21.9 µM | GI50 (HCC-2998 colon): 5.44 µM | TGI (HCC-2998 colon): 18.1 µM | GI50 (HCT-116 colon): 2.67 µM | TGI (HCT-116 colon): 7.4 µM | GI50 (HCT-15 colon): 2.39 µM | TGI (HCT-15 colon): 11.9 µM | GI50 (HL-60(TB) leukemia): 3.34 µM | TGI (HL-60(TB) leukemia): > 98 µM | GI50 (HOP-62 NSCLC): 10.9 µM | TGI (HOP-62 NSCLC): 39.8 µM | GI50 (HOP-92 NSCLC): 19 µM | TGI (HOP-92 NSCLC): 57.1 µM | GI50 (HS 578T breast): 16.9 µM | TGI (HS 578T breast): 56.4 µM | GI50 (HT29 colon): 3.27 µM | TGI (HT29 colon): 11 µM | GI50 (IGROV1 ovarian): 2.9 µM | TGI (IGROV1 ovarian): 12.3 µM | GI50 (K-562 leukemia): 4.4 µM | TGI (K-562 leukemia): > 98 µM | GI50 (KM12 colon): 4.61 µM | TGI (KM12 colon): 55.3 µM | GI50 (LOX IMVI melanoma): 2.09 µM | TGI (LOX IMVI melanoma): 6.37 µM | GI50 (M14 melanoma): 2.53 µM | TGI (M14 melanoma): 12.3 µM | GI50 (MALME-3M melanoma): 1.3 µM | TGI (MALME-3M melanoma): 2.67 µM | GI50 (MCF7 breast): 1.77 µM | TGI (MCF7 breast): 5.48 µM | GI50 (MDA-MB-231 breast): 2.95 µM | TGI (MDA-MB-231 breast): 10.7 µM | GI50 (MDA-MB-435): 1.68 µM | TGI (MDA-MB-435): 3.21 µM | GI50 (MDA-MB-468 breast): 1.58 µM | TGI (MDA-MB-468 breast): 3.67 µM | GI50 (MOLT-4 leukemia): 3.28 µM | TGI (MOLT-4 leukemia): 21.2 µM | GI50 (NCI-H226 lung): 10.9 µM | TGI (NCI-H226 lung): 27.7 µM | GI50 (NCI-H23 lung): 1.97 µM | TGI (NCI-H23 lung): 9.88 µM | GI50 (NCI-H460 lung): 1.25 µM | TGI (NCI-H460 lung): 3.75 µM | GI50 (NCI-H522 lung): 9.95 µM | TGI (NCI-H522 lung): 23.8 µM | GI50 (OVCAR-3 ovarian): 2.24 µM | TGI (OVCAR-3 ovarian): 6.35 µM | GI50 (OVCAR-4 ovarian): 2.41 µM | TGI (OVCAR-4 ovarian): 6.7 µM | GI50 (OVCAR-5 ovarian): 11.8 µM | TGI (OVCAR-5 ovarian): 25.2 µM | GI50 (OVCAR-8 ovarian): 2.99 µM | TGI (OVCAR-8 ovarian): 11.6 µM | GI50 (PC-3 prostate): 2.52 µM | TGI (PC-3 prostate): > 98 µM | GI50 (RPMI-8226 leukemia): 3.1 µM | TGI (RPMI-8226 leukemia): 40.7 µM | GI50 (RXF 393 renal): 3.59 µM | TGI (RXF 393 renal): 15.8 µM | GI50 (SF-268 CNS): 7.76 µM | TGI (SF-268 CNS): 63.6 µM | GI50 (SF-295 CNS): 4.1 µM | TGI (SF-295 CNS): 16.9 µM | GI50 (SF-539 CNS): 3.39 µM | TGI (SF-539 CNS): 11.7 µM | GI50 (SK-MEL-2 melanoma): 3.01 µM | TGI (SK-MEL-2 melanoma): 13.2 µM | GI50 (SK-MEL-28 melanoma): 10.8 µM | TGI (SK-MEL-28 melanoma): 28.2 µM | GI50 (SK-MEL-5 melanoma): 1.39 µM | TGI (SK-MEL-5 melanoma): 2.67 µM | GI50 (SK-OV-3 ovarian): 19.4 µM | TGI (SK-OV-3 ovarian): 79.6 µM | GI50 (SN12C renal): 2.27 µM | TGI (SN12C renal): 8.31 µM | GI50 (SNB-19 CNS): 5.4 µM | TGI (SNB-19 CNS): 20.1 µM | GI50 (SR leukemia): 3.18 µM | TGI (SR leukemia): > 98 µM | GI50 (SW-620 colon): 2.88 µM | TGI (SW-620 colon): 11 µM | GI50 (T-47D breast): 2.66 µM | TGI (T-47D breast): 9.9 µM | GI50 (TK-10 renal): 18.6 µM | TGI (TK-10 renal): 97.6 µM | GI50 (U251 CNS): 3.11 µM | TGI (U251 CNS): 13.3 µM | GI50 (UACC-257 melanoma): 1.72 µM | TGI (UACC-257 melanoma): 4.16 µM | GI50 (UACC-62 melanoma): 2.05 µM | TGI (UACC-62 melanoma): 5.31 µM | GI50 (UO-31 renal): 11 µM | TGI (UO-31 renal): 25.7 µM
